Measured values as given in patent publication US12644104B2, “Detection of environmental influences by bioluminescence” (priority 2020, dated 2026).

Tests used:
[1] = tested on: S. cerevisiae strain BY4742; test: Luminescence comparison of bacterial luciferase construct with Firefly luciferase in BY4742 (Example 2); type: cell-based, Saccharomyces cerevisiae
Protocol: (§1) D-Luciferin sodium salt (Carl Roth, Germany) was dissolved in 0.1 M Na2 HPO4-citrate buffer pH 5 to a final luciferin concentration of 1 mM. 100 μl of an overnight yeast culture was adjusted depending on the experimental question to a suitable starting OD600 of around 1.0 or less in CSM medium. 100 μl of yeast cells, 25 μl of a test solution (e.g., amino acid), and 25 μl of 1 mM luciferin solution were added in this order to a well of a black 96-well microtiter plate with a transparent bottom (Microplate, 96 well, PS, F-Bottom (Chimney Well) μClear®, Black, Med. Binding; Greiner bio-one, Germany) for a measurement. Measurements were performed using a Tristar2S Platereader (Berthold, Germany) at a constant temperature of 28° C.
The luciferase from Photinus pyralis was chosen for comparison because it is most commonly used in bioanalysis (see FIG. 6).
After both plasmids have the same genetic requirements, such as FBA1 promoter and terminator, the same vector backbone and were also transformed into BY4742, both plasmids could be directly compared. The experiment was performed twice with three technical replicates each time. The cultures were grown overnight at 28° C. and were each diluted with 50 μl of fresh medium (YPD medium). For the produced prototype (nucleic acid according to the invention, SEQ ID NO: 7), water was added instead of 50 μl of the luciferin solution (2 mM final concentration).
The luminescence of the Firefly luciferase is about 100,000 RLU. In contrast, the […]. After 5.4 h, only a low luminescence of 6893 can be measured (see FIG. 2D). The CSM-URA plates were photographed in daylight (FIG. 2A) and in complete darkness (FIG. 2B) by a commercial photographic camera. The naked eye was also able to perceive the light produced by the yeasts.

[2] = tested on: yeast strain BY4742; test: Detection of leucine by bioluminescence of leucine-auxotrophic BY4742 carrying pRS426-Lux (Example 4); type: cell-based, Saccharomyces cerevisiae; conditions: CSM-Leu-URA medium, leucine added after 5 h incubation, FIG. 4
Protocol: as §1
The yeast strain BY4742 used by the inventors has several auxotrophies, including leucine auxotrophy, which makes this strain useful for leucine detection. For this purpose, the strain was grown overnight in CSM-URA medium. […] After 5 h of incubation, a defined amount of leucine was added and luminescence was subsequently measured (FIG. 4). […] The relationship between available leucine and measured bioluminescence behaves in a concentration-dependent manner within a certain concentration range, so that the leucine concentration can be correlated and measured with the bioluminescence.

| Compound | initial luminescence ([1]; BY4742, FBA1 promoter/terminator, YPD, luciferin 2 mM added only for Firefly, FIG. 2D) | luminescence after 5.4 h ([1]; BY4742, FIG. 2D, luciferin added only for Firefly) | luminescence after 1.7 h ([1]; BY4742, luciferin 2 mM final, FIG. 2D) | leucine concentration from which organisms grow and light signal increases regardless of concentration [2] | leucine concentration with limiting effect on cell metabolism and maximum possible bioluminescence [2] |
| --- | --- | --- | --- | --- | --- |
| Firefly luciferase: plasmid encoding Photinus pyralis luciferase under the FBA1 promoter and terminator, same pRS426 backbone | 52,475 RLU | 6893 RLU | 19,143 RLU |  |  |
| CC(C)C[C@H](N)C(=O)O [leucine] |  |  |  | > 49 mg/L | less than 20 mg/L |
